Results reported in US20070060529A1, “ADMINISTRATION OF DIPEPTIDYL PEPTIDASE INHIBITORS” (priority 2005, published 2007).

Tested on: db/db (BKS.Cg-+Lepr^db/+Lepr^db) mice
Test: Plasma glucose after 21 days of administration in powder chow, alone or with pioglitazone
Format: in vivo
Conditions: male db/db mice, 21 days in powder chow, feeding condition; average (n=7) ± standard deviation
Procedure: Male db/db (BKS.Cg-+Lepr^db/+Lepr^db) mice (6 weeks of age, CLEA Japan (Tokyo, Japan)) were divided into 4 groups (n=7 in each group) comprising Group A to Group D. Group A had free access to CE-2 powder chow (CLEA Japan) for 21 days. […] Group C had free access to CE-2 powder chow (CLEA Japan) containing 0.0075% (w/w) of pioglitazone hydrochloride for 21 days. The dose of pioglitazone in Group C was calculated to be 17.7±0.6 (mean±SD) mg/kg body weight/day. […] During 21 days of administration of the powder chow, there were not significant differences in the administration amount of the powder chow in the above 4 groups. After 21 days of administration of the powder chow, blood samples were taken from the orbital veins of the mice by capillary pipette under feeding condition, and plasma glucose levels were enzymatically measured by using Autoanalyzer 7080 (Hitachi, Japan).
The values in the table means average (n=7)±standard deviation.

SMILES | Plasma Glucose [mg/dL]
N#Cc1ccccc1Cn1c(N2CCC[C@@H](N)C2)ncc(F)c1=O [Compound I, 2-[[2-[(3R)-3-Amino-piperidinyl)-5-fluoro-6-oxo-6H-pyrimidinyl]methyl]-benzonitrile] | 412.4 ± 77.5
CCc1ccc(CCOc2ccc(CC3SC(=O)NC3=O)cc2)nc1 (centres unmarked) [Pioglitazone, 5-{[4-(2-(5-ethyl-2-pyridyl)ethoxy)phenyl]-methyl}-thiazolidine-2,4-dione] | 394.4 ± 47.9
